From the NIST ThermoML archive (doi:10.1007/s10765-010-0737-5)

Columns and labels:
[1] = Liquid; for viscosity: 101 kPa, Capillary tube (Ostwald / Ubbelohde) method; for mass density: 101.3 kPa
[2] = xn = mol fraction of the nth substance listed; conditions: Liquid, x2 = 0; for viscosity: 101 kPa, Capillary tube (Ostwald / Ubbelohde) method; for mass density: 101.3 kPa

CC(C)OC(C)C [diisopropyl ether]
[1]
Conditions | mass density [kg/m3] | viscosity [mPa·s]
283.15 K | 733.833 | 0.3646
288.15 K | 728.692 | 0.3486
293.15 K | 723.509 | 0.334
298.15 K | 718.289 | 0.3178
303.15 K | 713.032 | 0.3001
308.15 K | 707.727 | 0.2857
313.15 K | 702.378 | 0.2723

CCCCCl [1-chlorobutane]
[1]
Conditions | mass density [kg/m3] | viscosity [mPa·s]
283.15 K | 897.339 | 0.4993
288.15 K | 891.855 | 0.4701
293.15 K | 886.335 | 0.4433
298.15 K | 880.705 | 0.4214
303.15 K | 875.204 | 0.405
308.15 K | 869.585 | 0.3885
313.15 K | 863.882 | 0.3642

CCC(C)Cl (stereo unspecified) [2-chlorobutane]
[1]
Conditions | mass density [kg/m3] | viscosity [mPa·s]
283.15 K | 884.34 | 0.4631
288.15 K | 878.756 | 0.4365
293.15 K | 873.13 | 0.4167
298.15 K | 867.474 | 0.3993
303.15 K | 861.779 | 0.38
308.15 K | 856.044 | 0.3615
313.15 K | 850.266 | 0.3443

CC(C)(C)Cl [2-chloro-2-methylpropane]
[1]
Conditions | mass density [kg/m3] | viscosity [mPa·s]
283.15 K | 855.249 | 0.598
288.15 K | 849.243 | 0.5538
293.15 K | 843.191 | 0.5135
298.15 K | 837.096 | 0.4768
303.15 K | 830.958 | 0.4438
308.15 K | 824.772 | 0.4196
313.15 K | 818.536 | 0.3904

CC(C)CCl [1-chloro-2-methylpropane]
[1]
Conditions | mass density [kg/m3] | viscosity [mPa·s]
283.15 K | 888.845 | 0.5155
288.15 K | 883.211 | 0.4833
293.15 K | 877.539 | 0.454
298.15 K | 871.533 | 0.4296
303.15 K | 866.096 | 0.4112
308.15 K | 860.319 | 0.3921
313.15 K | 853.902 | 0.3726

CC(C)OC(C)C [diisopropyl ether] + CCCCCl
[2]
Conditions | mass density [kg/m3] | viscosity [mPa·s]
283.15 K | 733.833 | 0.3646
288.15 K | 728.692 | 0.3486
293.15 K | 723.509 | 0.334
298.15 K | 718.289 | 0.3178
303.15 K | 713.032 | 0.3001
308.15 K | 707.727 | 0.2857
313.15 K | 702.378 | 0.2723

CC(C)OC(C)C [diisopropyl ether] + CCC(C)Cl
[2]
Conditions | mass density [kg/m3] | viscosity [mPa·s]
283.15 K | 733.833 | 0.3646
288.15 K | 728.692 | 0.3486
293.15 K | 723.509 | 0.334
298.15 K | 718.289 | 0.3178
303.15 K | 713.032 | 0.3001
308.15 K | 707.727 | 0.2857
313.15 K | 702.378 | 0.2723

CC(C)OC(C)C [diisopropyl ether] + CC(C)CCl
[2]
Conditions | mass density [kg/m3] | viscosity [mPa·s]
283.15 K | 733.833 | 0.3646
288.15 K | 728.692 | 0.3486
293.15 K | 723.509 | 0.334
298.15 K | 718.289 | 0.3178
303.15 K | 713.032 | 0.3001
308.15 K | 707.727 | 0.2857
313.15 K | 702.378 | 0.2723

CC(C)OC(C)C [diisopropyl ether] + CC(C)(C)Cl
[2]
Conditions | mass density [kg/m3] | viscosity [mPa·s]
283.15 K | 733.833 | 0.3646
288.15 K | 728.692 | 0.3486
293.15 K | 723.509 | 0.334
298.15 K | 718.289 | 0.3178
303.15 K | 713.032 | 0.3001
308.15 K | 707.727 | 0.2857
313.15 K | 702.378 | 0.2723
